Test results: patent publication US20230391772A1, “METHODS AND COMPOSITIONS FOR TARGETED PROTEIN DEGRADATION” (Ranok Therapeutics (Hangzhou) Co. Ltd., priority 2020, published 2023)

How the values were obtained:
KRAS(G12C) = KRAS(G12C) (Homo sapiens, UniProt P01116, G12C); test: KRAS(G12C)/SOS1 homogeneous time-resolved fluorescence (HTRF) assay; design: purchased Cisbio 63ADK000CB16PEG; conditions: absence of GTP, 4° C. for 3 hr, read-out: KRAS (G12C) binding
Summary of the method: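 Three-hour incubation at 4 °C of 3-fold compound dilutions (lowest 1.02 nM) with KRAS(G12C), SOS1 and detection reagents, GTP absent. Disruption of the KRAS(G12C)/SOS1 complex detected by time-resolved fluorescence.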

[1] = system: MIA PaCa-2 human pancreatic carcinoma; test: MIA PaCa-2 CCK-8 proliferation assay; format: cell-based; conditions: Homo sapiens, MIA PaCa-2, 72 h, MIA PaCa-2 cells
Summary of the method: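 Percent inhibition derived from CCK-8 optical signal, normalised between DMSO-only cells (0%) and cell-free medium containing DMSO as background. Cells: MIA PaCa-2 carrying 2 KRAS(G12C) copies; NCI-H358, NCI-H23 carrying 1 copy apiece. Concentrations spanned 1.02 nM–20 μM in threefold increments.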

HSP90a protein = target: T1, HSP90a protein (Homo sapiens, UniProt P07900); test: HSP90α-binding fluorescent polarization (FP) assay, BODIPY-labeled RNK04010 probe; conditions: FP competition with RNK04010 (BODIPY-labeled), 5 nM, 300 min at 25° C.
T1 construct: purchased BPS Bioscience 50298
Summary of the method: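 Compound dilutions (20 μM to 5.2 nM, 2.5-fold) are combined with 5 nM final labeled probe, and HSP90a N-terminal protein is added last. Plates are shaken briefly and held at 25° C for 120 min (FITC-geldanamycin) or 300 min (BODIPY-RNK04010), then FP is measured.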

KRAS(G12C), sequence (P01116 1-188 isoform P01116-2 G12C): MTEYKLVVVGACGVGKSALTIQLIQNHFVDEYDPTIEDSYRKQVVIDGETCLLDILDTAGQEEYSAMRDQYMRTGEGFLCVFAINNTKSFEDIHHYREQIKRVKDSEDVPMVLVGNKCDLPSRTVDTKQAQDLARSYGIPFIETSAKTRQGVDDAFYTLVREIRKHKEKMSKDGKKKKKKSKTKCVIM

C=CC(=O)N1CCN(c2nc(OC[C@@H]3C[C@@H](OCC(=O)N4CCC(CN5CCN(Cc6ccc(-n7c(C(=O)NCC(F)(F)F)nnc7-c7cc(CC)c(O)cc7O)cc6)CC5)CC4)CN3C)nc3c2CCN(c2cccc4cccc(Cl)c24)C3)C[C@@H]1CC#N [Compound 300, 4-(4-((4-((1-(2-(((3R,5S)-5-(((4-((S)-4-acryloyl-3-(cyanomethyl)piperazin-1-yl)-7-(8-chloronaphthalen-1-yl)-5,6,7,8-tetrahydropyrido[3,4-d]pyrimidin-2-yl)oxy)methyl)-1-methylpyrrolidin-3-yl)oxy)acetyl)piperidin-4-yl)methyl)piperazin-1-yl)methyl)phenyl)-5-(5-ethyl-2,4-dihydroxyphenyl)-N-(2,2,2-trifluoroethyl)-4H-1,2,4-triazole-3-carboxamide]
IC50 (KRAS(G12C)): < 100 nM | EC50 [1]: < 100 nM | IC50 (HSP90a protein): < 100 nM

C=CC(=O)N1CCN(c2nc(OC[C@@H]3C[C@@H](OCC(=O)N4CCC(CN5CCN(Cc6ccc(-n7c(O)nnc7-c7cc(C(C)C)c(O)cc7O)cc6)CC5)CC4)CN3C)nc3c2CCN(c2cccc4cccc(Cl)c24)C3)C[C@@H]1CC#N [Compound 301, 2-((S)-1-acryloyl-4-(7-(8-chloronaphthalen-1-yl)-2-(((2S,4R)-4-(2-(4-((4-(4-(3-(2,4-dihydroxy-5-isopropylphenyl)-5-hydroxy-4H-1,2,4-triazol-4-yl)benzyl)piperazin-1-yl)methyl)piperidin-1-yl)-2-oxoethoxy)-1-methylpyrrolidin-2-yl)methoxy)-5,6,7,8-tetrahydropyrido[3,4-d]pyrimidin-4-yl)piperazin-2-yl)acetonitrile]
IC50 (KRAS(G12C)): 100 to 1000 nM | EC50 [1]: 100 to 1000 nM | IC50 (HSP90a protein): < 100 nM

C=CC(=O)N1CCN(c2nc(OC[C@@H]3C[C@@H](OCC(=O)NCc4ccc(-n5c(O)nnc5-c5cc(C(C)C)c(O)cc5O)cc4)CN3C)nc3c2CCN(c2cccc4cccc(Cl)c24)C3)C[C@@H]1CC#N [Compound 302, 2-(((3R,5S)-5-(((4-((S)-4-acryloyl-3-(cyanomethyl)piperazin-1-yl)-7-(8-chloronaphthalen-1-yl)-5,6,7,8-tetrahydropyrido[3,4-d]pyrimidin-2-yl)oxy)methyl)-1-methylpyrrolidin-3-yl)oxy)-N-(4-(3-(2,4-dihydroxy-5-isopropylphenyl)-5-hydroxy-4H-1,2,4-triazol-4-yl)benzyl)acetamide]
IC50 (KRAS(G12C)): 100 to 1000 nM | EC50 [1]: 100 to 1000 nM | IC50 (HSP90a protein): < 100 nM

C=CC(=O)N1CCN(c2nc(OC[C@@H]3C[C@@H](OCC(=O)N4CCC(Cc5ccc(-n6c(C(=O)NCC(F)(F)F)nnc6-c6cc(C(C)C)c(O)cc6O)cc5)CC4)CN3C)nc3c2CCN(c2cccc4cccc(Cl)c24)C3)C[C@@H]1CC#N [Compound 303, 4-(4-((1-(2-(((3R,5S)-5-(((4-((S)-4-acryloyl-3-(cyanomethyl)piperazin-1-yl)-7-(8-chloronaphthalen-1-yl)-5,6,7,8-tetrahydropyrido[3,4-d]pyrimidin-2-yl)oxy)methyl)-1-methylpyrrolidin-3-yl)oxy)acetyl)piperidin-4-yl)methyl)phenyl)-5-(2,4-dihydroxy-5-isopropylphenyl)-N-(2,2,2-trifluoroethyl)-4H-1,2,4-triazole-3-carboxamide]
IC50 (KRAS(G12C)): 100 to 1000 nM | EC50 [1]: 100 to 1000 nM | IC50 (HSP90a protein): < 100 nM

C=CC(=O)N1CCN(c2nc(OC[C@@H]3CC[C@H](C(=O)N4CCN(C(=O)C5CCN(Cc6ccc(-n7c(C(=O)NCC(F)(F)F)nnc7-c7cc(C(C)C)c(O)cc7O)cc6)CC5)CC4)N3C)nc3c2CCN(c2cccc4cccc(Cl)c24)C3)C[C@@H]1CC#N [Compound 304, 4-{4-[(4-{4-[(2R,5S)-5-({[7-(8-chloronaphthalen-1-yl)-4-[(3S)-3-(cyanomethyl)-4-(prop-2-enoyl)piperazin-1-yl]-5H,6H,8H-pyrido[3,4-d]pyrimidin-2-yl]oxy}methyl)-1-methylpyrrolidine-2-carbonyl]piperazine-1-carbonyl}piperidin-1-yl)methyl]p-henyl}-5-(2,4-dihydroxy-5-isopropylphenyl)-N-(2,2,2-trifluoroethyl)-1,2,4-triazole-3-carboxamide]
IC50 (KRAS(G12C)): 100 to 1000 nM | EC50 [1]: < 100 nM | IC50 (HSP90a protein): < 100 nM

C=CC(=O)N1CCN(c2nc(OC[C@@H]3C[C@H](NC(=O)C4CCN(C(=O)C5CCN(Cc6ccc(-n7c(C(=O)NCC(F)(F)F)nnc7-c7cc(C(C)C)c(O)cc7O)cc6)CC5)CC4)CN3C)nc3c2CCN(c2cccc4cccc(Cl)c24)C3)C[C@@H]1CC#N [Compound 307, N-[(3S,5S)-5-({[7-(8-chloronaphthalen-1-yl)-4-[(3S)-3-(cyanomethyl)-4-(prop-2-enoyl)piperazin-1-yl]-5H,6H,8H-pyrido[3,4-d]pyrimidin-2-yl]oxy}methyl)-1-methylpyrrolidin-3-yl]-1-[1-({4-[3-(2,4-dihydroxy-5-isopropylphenyl)-5-[(2,2,2-tri-fluoroethyl)carbamoyl]-1,2,4-triazol-4-yl]phenyl}methyl)piperidine-4-carbonyl]piperidine-4-carboxamide]
IC50 (KRAS(G12C)): < 100 nM | EC50 [1]: < 100 nM | IC50 (HSP90a protein): < 100 nM

C=CC(=O)N1CCN(c2nc(OC[C@@H]3C[C@H](NC(=O)C4CCN(C(=O)C5CCN(Cc6ccc(-n7c(C(=O)NCC(F)(F)C(F)(F)F)nnc7-c7cc(C(C)C)c(O)cc7O)cc6)CC5)CC4)CN3C)nc3c2CCN(c2cccc4cccc(Cl)c24)C3)C[C@@H]1CC#N [Compound 308, N-[(3S,5S)-5-({[7-(8-chloronaphthalen-1-yl)-4-[(3S)-3-(cyanomethyl)-4-(prop-2-enoyl)piperazin-1-yl]-5H,6H,8H-pyrido[3,4-d]pyrimidin-2-yl]oxy}methyl)-1-methylpyrrolidin-3-yl]-1-[1-({4-[3-(2,4-dihydroxy-5-isopropylphenyl)-5-[(2,2,3,3,3-pentafluoropropyl)carbamoyl]-1,2,4-triazol-4-yl]phenyl}methyl)piperidine-4-carbonyl]piperidine-4-carboxamide]
IC50 (KRAS(G12C)): < 100 nM | EC50 [1]: < 100 nM | IC50 (HSP90a protein): < 100 nM

C=CC(=O)N1CCN(c2nc(OC[C@@H]3C[C@H](NC(=O)C4CCN(C(=O)C5CCN(Cc6ccc(-n7c(O)nnc7-c7cc(C(C)C)c(O)cc7O)cc6)CC5)CC4)CN3C)nc3c2CCN(c2cccc4cccc(Cl)c24)C3)C[C@@H]1CC#N [Compound 309, N-[(3S,5S)-5-({[7-(8-chloronaphthalen-1-yl)-4-[(3S)-3-(cyanomethyl)-4-(prop-2-enoyl)piperazin-1-yl]-5H,6H,8H-pyrido[3,4-d]pyrimidin-2-yl]oxy}methyl)-1-methylpyrrolidin-3-yl]-1-[1-({4-[3-(2,4-dihydroxy-5-isopropylphenyl)-5-hydroxy-1,2,4-triazol-4-yl]phenyl}methyl)piperidine-4-carbonyl]piperidine-4-carboxamide]
IC50 (KRAS(G12C)): < 100 nM | EC50 [1]: 100 to 1000 nM | IC50 (HSP90a protein): < 100 nM

C=CC(=O)N1CCN(c2nc(OC[C@@H]3CC[C@H](CN4CCN(C(=O)C5CCN(Cc6ccc(-n7c(C(=O)NCC(F)(F)F)nnc7-c7cc(C(C)C)c(O)cc7O)cc6)CC5)CC4)N3C)nc3c2CCN(c2cccc4cccc(Cl)c24)C3)C[C@@H]1CC#N [Compound 310, 4-(4-{[4-(4-{[(2R,5S)-5-({[7-(8-chloronaphthalen-1-yl)-4-[(3S)-3-(cyanomethyl)-4-(prop-2-enoyl)piperazin-1-yl]-5H,6H,8H-pyrido[3,4-d]pyrimidin-2-yl]oxy}methyl)-1-methylpyrrolidin-2-yl]methyl}piperazine-1-carbonyl)piperidin-1-yl]methyl}phenyl)-5-(2,4-dihydroxy-5-isopropylphenyl)-N-(2,2,2-trifluoroethyl)-1,2,4-triazole-3-carboxamide]
IC50 (KRAS(G12C)): < 100 nM | EC50 [1]: < 100 nM | IC50 (HSP90a protein): < 100 nM

C=CC(=O)N1CCN(c2nc(OC[C@@H]3C[C@H](N4CCC5(CCN(C(=O)C6CCN(Cc7ccc(-n8c(C(=O)NCC(F)(F)F)nnc8-c8cc(C(C)C)c(O)cc8O)cc7)CC6)CC5)CC4)CN3C)nc3c2CCN(c2cccc4cccc(Cl)c24)C3)C[C@@H]1CC#N [Compound 311, 4-{4-[(4-{9-[(3S,5S)-5-({[7-(8-chloronaphthalen-1-yl)-4-[(3S)-3-(cyanomethyl)-4-(prop-2-enoyl)piperazin-1-yl]-5H,6H,8H-pyrido[3,4-d]pyrimidin-2-yl]oxy}methyl)-1-methylpyrrolidin-3-yl]-3,9-diazaspiro[5.5]undecane-3-carbonyl}piperidin-1-yl)methyl]phenyl}-5-(2,4-dihydroxy-5-isopropylphenyl)-N-(2,2,2-trifluoroethyl)-1,2,4-triazole-3-carboxamide]
IC50 (KRAS(G12C)): < 100 nM | EC50 [1]: < 100 nM | IC50 (HSP90a protein): < 100 nM

C=CC(=O)N1CCN(c2nc(OC[C@@H]3C[C@H](NC(=O)C4CCN(C(=O)C5CCN(Cc6ccc(-n7c(O)nnc7-c7cc(C)c(O)cc7O)cc6)CC5)CC4)CN3C)nc3c2CCN(c2cccc4cccc(Cl)c24)C3)C[C@@H]1CC#N [Compound 312, N-[(3S,5S)-5-({[7-(8-chloronaphthalen-1-yl)-4-[(3S)-3-(cyanomethyl)-4-(prop-2-e-noyl)piperazin-1-yl]-5H,6H,8H-pyrido[3,4-d]pyrimidin-2-yl]oxy}methyl)-1-meth-ylpyrrolidin-3-yl]-1-[1-({4-[3-(2,4-dihydroxy-5-methylphenyl)-5-hydroxy-1,2,4-triazol-4-yl]phenyl}methyl)piperidine-4-carbonyl]piperidine-4-carboxamide]
IC50 (KRAS(G12C)): < 100 nM | EC50 [1]: > 1000 nM | IC50 (HSP90a protein): < 100 nM
